These results are taken from US20190124918A1, “BIOFILM FORMATION INHIBITOR AND BIOFILM FORMATION INHIBITING COMPOSITION” (KAO CORPORATION, priority 2016, published 2019).

Data set [1] concerns Pseudomonas PAO1 strain (ATCC 15692). Briefly: Growth of test microbe (turbidity OD600), 96-well microplate culture. The format is cell-based. How it is done: Pseudomonas PAO1 strain (ATCC 15692) was subjected to stationary culture performed in LB culture medium (Lysogeny Broth; manufactured by Becton Dickinson) at 37° C. for 24 hours. The turbidity (OD600) of the culture solution was measured. The culture solution was diluted with Mueller Hinton Broth (BBL made) to prepare a suspension (15 mL) having a turbidity (OD600) of 1/10^6.
To each of the wells of a 96-well microplate (351172; manufactured by Japan Becton Dickinson), 6 μL of DMSO (Tokyo Chemical Industry Co. Ltd) and an ethanol solution (1 μL, 3 μL or 5 μL) of a test compound were added. After that, the microplate was allowed to stand still at room temperature for 5 hours to evaporate ethanol. The suspension of Pseudomonas microbe prepared in the above step 1) was added in an amount of 145 μL per well and culture was initiated. As the test compound, 2-methylhydroquinone (Sigma Aldrich) and p-toluquinone (Tokyo Kasei) were used. As a reference compound, sodium hypochlorite (manufactured by Wako Pure Chemical Industries Ltd.) was used. As a control, an ethanol solvent (EtOH control) alone was used. The concentration of the test compound in the ethanol solution is 1,000 ppm or 10,000 ppm and the final concentration of the test compound in the culture solution was about from 7 to 333 ppm.
After the 96-well microplate was subjected to stationary culture performed at 30° C. for 24 hours, turbidity (OD600) was measured to check growth. Subsequently, individual wells were stained with 0.1% crystal violet and thoroughly washed twice with physiological saline. To each well, 200 μL of ethanol was added and the absorbance (OD570) was measured to obtain the amount of the biofilm formed.
Compounds listed in Table 3 were each added to a test microbe and culture was conducted by the same procedure as in Test Example 1 and the amount of growth (OD600) and the amount of biofilm formed (OD570) were measured. For compounds a, b, c, f, h, i, J and k, 20 mM ethanol solutions were prepared; whereas for compounds d, e, g, 5 mM ethanol solutions were prepared. The solutions were each added to a 96-well microplate in an amount of 1 to 8 μL and evaluation was made. The final concentrations of the individual compounds are described in Table 3.
(§1) Growth inhibition rates relative to the control (ethanol alone) were calculated based on OD600 values measured and in accordance with the following expression. In addition, biofilm (BF) formation inhibition rates relative to the control (ethanol alone) were calculated based on OD570 values and in accordance with the following expression:
Growth inhibition (%)=(1−(compound addition group OD600/control group OD600))×100
(§2) As a control, an ethanol solvent alone was used (EtOH control). The concentrations of test compounds in the ethanol solution were as follows: test compound 1: 20 mM, test compounds 2 to 7: 100 mM. To each of the wells of a 96-well microplate (351172; manufactured by Japan Becton Dickinson), 6 μL of DMSO (Tokyo Kasei) and an ethanol solution of each test compound (1 to 8 μL) were added and then the microplates were allowed to stand still at room temperature for 5 hours to evaporate ethanol. A suspension solution of a Pseudomonas microbe prepared in the same procedure as in Test Example 1, 1) was added in an amount of 145 μL per well and culture was initiated.
(§3) After the 96-well microplate was subjected to stationary culture at 30° C. for 24 hours, turbidity (OD600) was measured to check growth. Subsequently, individual wells were stained with 0.1% crystal violet and thoroughly washed twice with physiological saline. To each well, 200 μL of ethanol was added and the absorbance (OD570) was measured to obtain the amount of the biofilm formed. The growth inhibition rate and biofilm (BF) formation inhibition rate were calculated based on OD600 and OD570 values measured and in accordance with the expressions used in Test Example 2.

Data set [2] shares this test system. Briefly: Amount of biofilm formed (crystal violet, OD570), 96-well microplate culture. The data set is classed as cell-based. As to the method: Pseudomonas PAO1 strain (ATCC 15692) was subjected to stationary culture performed in LB culture medium (Lysogeny Broth; manufactured by Becton Dickinson) at 37° C. for 24 hours. The turbidity (OD600) of the culture solution was measured. The culture solution was diluted with Mueller Hinton Broth (BBL made) to prepare a suspension (15 mL) having a turbidity (OD600) of 1/10^6. […]
as §1
BF inhibition (%)={1−(compound addition group OD570/control group OD570)}×100
as §2, §3

The test system of data set [3] is cooling water taken from a water cooling tower. In words: Aqueous system model (annular reactor): amount of biofilm formed on test pieces (OD570). Conditions: Test Example 5; same procedure as Test Example 4; solvent control finally beyond 1.0. The data set is classed as cell-based. How it is done: (§4) Biofilm formation inhibitory activity of p-toluquinone (Tokyo Kasei) was evaluated by an aqueous system model using an annular reactor (Art Science Co., Ltd.) having a 100 mL-volume culture tank. In the culture tank of the annular reactor, a cylindrical rotating body rotating at a speed of 160 rounds per minute was installed. To the rotating body, 12 test pieces were attached in advance. These test pieces were taken out at predetermined time intervals and biofilm formed on the test pieces was quantified. From a water cooling tower provided on a building rooftop and actually used, cooling water was taken and supplied to the annular reactor culture vessel (maintained at 30° C.) at a flow rate of 10 mL per minute; at the same time, an ethanol solution (15 g/L) of p-toluquinone was separately supplied to the annular reactor culture vessel by a syringe pump YSP-201 (manufactured by YMC) at a flow rate of 10 μL per minute (p-toluquinone concentration in cooling water in the culture tank was 15 ppm). The test pieces (n=2) taken out from the culture tank at predetermined time intervals were stained with 0.1% crystal violet, thoroughly washed twice with physiological saline and recovered in ethanol (15 mL). The absorbance (OD570) was measured to obtain the amount of the biofilm formed. […] Thereafter, the number of bacteria cells was measured. […]

Data set [4] has the same test system. Briefly: Aqueous system model (annular reactor): number of bacterial cells in water at inlet and outlet (R2A agar). The format is cell-based. Conditions: Test Example 5; same procedure as Test Example 4; solvent control also about 10^4. As to the method: as §4
The nature of data set [5]: Dissolution in solvent (MDG) when preparing compositions. The data set is classed as physicochemical. The conditions noted are these: preparation of compositions. As to the method:
Predetermined amounts of p-toluquinone and HEDP were weighed and solvent (MDG) was added to prepare a composition. Since citric acid and EDTA were not dissolved in MDG, they were directly added in culture solutions; at the same time, p-toluquinone was directly added to the culture solutions.

For data set [6], the system named is biofilm-forming microbe isolated from cooling water taken from a water cooling tower. Briefly: Biofilm inhibition test, quinone-based compound and organic solvent (OD570). The format is cell-based. Conditions: for OD570: alone or added as test solution in Diacetone alcohol, no addition gave 2.15. How it is done: A biofilm-forming microbe (microbe providing a OD570 value of 0.3 or more in the test for determining the amount of biofilm in the following section 4-3) isolated from cooling water taken from a water cooling tower was cultured in R2A culture medium at 30° C. for 16 hours while shaking. The turbidity (OD600) of the resultant culture solution was measured. The culture solution was diluted with R2A culture medium to prepare a suspension of 10^3 cfu/mL.
The suspension of a test microbe prepared in the above section 4-1) was added in individual wells of a 96 well microplate in an amount of 150 μL. Thereafter, the test solution prepared in the above section 2) was add and culture was initiated.
The 96 well microplate was subjected to stationary culture performed at 30° C. for 48 hours. The culture solution was removed and the resultant microplate was washed with water. Subsequently, each well was stained with 0.1% crystal violet and 200 μL of ethanol was added. The absorbance (OD570) was measured to obtain the amount of biofilm (BF) formed.

The mark [7] stands for this setting: Pseudomonas, read-out: Growth inhibition (%).
Where [8] appears, read: Pseudomonas, read-out: BF inhibition (%).

`CCCCc1ccc(O)cc1O` [Compound 1, 4-Butylresorcinol]: the inhibition at 22 ppm in data set [1] (Pseudomonas, Test Example 3, final concentration 22 ppm) is under 0%; in data set [2] (Pseudomonas, Test Example 3, final concentration 22 ppm, read-out: BF inhibition (%)) it was 0.5%. The inhibition at 44 ppm was under 0% in data set [1] (Pseudomonas, Test Example 3, final concentration 44 ppm) and 18.3% in data set [2] (Pseudomonas, Test Example 3, final concentration 44 ppm, read-out: BF inhibition (%)). Moreover, the inhibition at 89 ppm is under 0% in data set [1] (Pseudomonas, Test Example 3, final concentration 89 ppm) and 4.5% in data set [2] (Pseudomonas, Test Example 3, final concentration 89 ppm, read-out: BF inhibition (%)). Also, the inhibition at 133 ppm in data set [1] (Pseudomonas, Test Example 3, final concentration 133 ppm) is under 0%; in data set [2] (Pseudomonas, Test Example 3, final concentration 133 ppm, read-out: BF inhibition (%)), 12.9%. Moreover, the inhibition at 155 ppm in data set [1] (Pseudomonas, Test Example 3, final concentration 155 ppm) was 42.8%; in data set [2] (Pseudomonas, Test Example 3, final concentration 155 ppm, read-out: BF inhibition (%)), 54.9%. For the same compound, the inhibition at 177 ppm in data set [1] (Pseudomonas, Test Example 3, final concentration 177 ppm) is 32.7%; in data set [2] (Pseudomonas, Test Example 3, final concentration 177 ppm, read-out: BF inhibition (%)) it was 45.9%. Besides, the “amount of the biofilm formed (OD570)” value in data set [3] is given as at most 0.4. In addition, in data set [4], the “number of bacterial cells at the inlet or outlet of the reactor” value is “about 10^4 cells/mL”.
As to `O=C(O)CN(CCN(CC(=O)O)CC(=O)O)CC(=O)O` [EDTA, Ethylenediaminetetraacetic acid], the “dissolution in MDG (diethylene glycol monomethyl ether)” value in data set [5] is given as “not dissolved”.
As for `CC1=CC(=O)C=C(C)C1=O` [i, 3,5-Dimethylbenzoquinone], the inhibition at 18 ppm in data set [1] (Pseudomonas, final concentration 18 ppm) was 5.3%; in data set [2] (Pseudomonas, final concentration 18 ppm, read-out: BF inhibition (%)), 17.2%. The inhibition at 36 ppm was under 0% in data set [1] (Pseudomonas, final concentration 36 ppm) and 26.2% in data set [2] (Pseudomonas, final concentration 36 ppm, read-out: BF inhibition (%)). The inhibition at 72 ppm worked out at 29.7% in data set [1] (Pseudomonas, final concentration 72 ppm) and 29.4% in data set [2] (Pseudomonas, final concentration 72 ppm, read-out: BF inhibition (%)). For the same compound, the inhibition at 109 ppm worked out at 33.5% in data set [1] (Pseudomonas, final concentration 109 ppm) and 54% in data set [2] (Pseudomonas, final concentration 109 ppm, read-out: BF inhibition (%)). Further, the inhibition at 127 ppm in data set [1] (Pseudomonas, final concentration 127 ppm) turned out to be 33.7%; in data set [2] (Pseudomonas, final concentration 127 ppm, read-out: BF inhibition (%)), 60.9%. The inhibition at 145 ppm was 37.7% in data set [1] (Pseudomonas, final concentration 145 ppm) and 55.8% in data set [2] (Pseudomonas, final concentration 145 ppm, read-out: BF inhibition (%)).
For the compound `OCl` [Sodium hypochlorite, sodium hypochlorite, reference compound], the “microbial growth (in words)” value in data set [1] (Test Example 1, 7 to 333 ppm) is “inhibited”. For the same compound, the “Growth OD600” value in data set [1] (final concentration 7 ppm, EtOH control 0.5913) is given as 0.5938; in data set [1] (final concentration 20 ppm, EtOH control 0.6346), 0.4966; in data set [1] (final concentration 33 ppm, EtOH control 0.668) it was 0.4445; in data set [1] (final concentration 67 ppm, EtOH control 0.628), 0.4585; in data set [1] (final concentration 200 ppm, EtOH control 0.6045) it was 0.3016; in data set [1] (final concentration 333 ppm, EtOH control 0.6088) it was 0.2758. Further, the “biofilm formation (in words)” value in data set [2] (Test Example 1, 7 to 333 ppm) is recorded as “inhibited”. For the same compound, the “The amount of the biofilm formed OD570” value was found to be 0.9918 in data set [2] (final concentration 7 ppm, EtOH control 0.9163); 0.9042 in data set [2] (final concentration 20 ppm, EtOH control 0.9564); 0.7879 in data set [2] (final concentration 33 ppm, EtOH control 0.8974); 0.7277 in data set [2] (final concentration 67 ppm, EtOH control 0.8853); 0.7579 in data set [2] (final concentration 200 ppm, EtOH control 0.9248); 0.4967 in data set [2] (final concentration 333 ppm, EtOH control 0.9562).
Consider `OCCOCCO` [diethylene glycol], for which the “decrease of BF formation inhibitory effect of the quinone-based compound by the organic solvent (in words)” value in data set [6] (from the results in Table 13, among the organic solvents tested) is recorded as “lowest”.
As for `CCCCCCc1ccc(O)cc1O` [4-Hexylresorcinol], the values for the OD570 in data set [6] (4-Hexylresorcinol 10 ppm) and in data set [6] (4-Hexylresorcinol 20 ppm) were 1.49 and 0.10, respectively.
Take `CCCCCc1cc(O)cc(O)c1` [Compound 3, 5-Pentylresorcinol]: in data set [1] (setting [7]), the inhibition at 120 ppm is 7.7%, the inhibition at 240 ppm was under 0%, the inhibition at 480 ppm is under 0% and the inhibition at 720 ppm was under 0%. In data set [1] (setting [7]), the inhibition at 840 ppm was determined as 17% and the inhibition at 960 ppm stood at 4.9%. Moreover, in data set [2] (setting [8]), the inhibition at 120 ppm stood at 0.9%, the inhibition at 240 ppm is under 0%, the inhibition at 480 ppm stood at 50.6% and the inhibition at 720 ppm amounted to 42.3%. Besides, in data set [2] (setting [8]), the inhibition at 840 ppm was determined as 85% and the inhibition at 960 ppm was found to be 86.1%.
